In patent EP0126970A2, “Anxiolytic and anti-depressant thienopyridine derivatives” (BEECHAM GROUP PLC, priority 1983, dated 1984):
Where a name gives a salt, the structure may show the parent alone.

How the values were obtained:
benzodiazepine receptors [1] = assay: Radioligand binding, displacement of [3H]-Flunitrazepam; conditions: rat whole brain membranes, 0.5nM [3H] ligand; read-out: [^3H]-Flu Ki
Method: (§1) An interaction with benzodiazepine receptors in the central nervous system may be indicative of anxiolytic activity since inhibition of benzodiazepine binding correlates with the clinical efficacy of benzodiazepines. [^3H]-Flunitrazepam and [^3H]-βCCE selectively label benzodiazepine receptors and displacement of this specific binding in vitro by novel compounds in well-washed, frozen rat whole brain membranes is measured essentially as described by Martin and Candy (1978). At the fixed concentration of 0.5nM used, specific binding of both [^3H] ligands represents 80-90% of the total radioactivity bound. Non-specific binding is defined by 10µM clonazepam for each ligand. IC50 values are calculated from log [dose] against % inhibition curves; Ki values are determined using the Cheng-Prusoff equation.

benzodiazepine receptors [2] = assay: Radioligand binding, displacement of [3H]-βCCE; conditions: rat whole brain membranes, 0.5nM [3H] ligand
Method: as §1

| SMILES | Ki (benzodiazepine receptors [1]) [nM] | Ki (benzodiazepine receptors [2]) [nM] |
| --- | --- | --- |
| O=c1c2c[nH]c3cscc3c-2nn1-c1ccc(Cl)cc1 [Example E31, 2-(4-Chlorophenyl)-2,5-dihydro-3H-pyrazolo[3,4-d]thieno [3,4-b]pyridin-3-one] | 0.32 |  |
| Cc1[nH]c2ccsc2c2nn(-c3ccc(Cl)cc3)c(=O)c1-2 [Example E20, 2-(4-Chlorophenyl)-2,5-dihydro-4-methyl-3H-pyrazolo [3,4-d]thieno[3,2-b]pyridin-3-one] | 1000 | 2200 |
| CCOC(=O)c1c(C)nc2ccsc2c1NNc1ccc(Cl)cc1 [Example E11, 7-(2-(4-Chlorophenyl)hydrazino)-5-methyl-thieno[3,2-b] pyridine-6-carboxylic acid, ethyl estet, monohydrochloride] | 200 | 290 |
| CCOC(=O)c1cnc2ccsc2c1NNc1ccc([N+](=O)[O-])cc1 [Example E3, 7-(2-(4-Nitrophenyl)hydrazino)-thieno[3,2-b]pyridine-6-carboxylic acid, ethyl ester, monohydrochloride] | 1000 | 1500 |
| CCOC(=O)c1cnc2ccsc2c1NNc1ccccc1 [Example E1, 7-(2-Phenylhydrazino)-thieno[3,2-b]pyridine-6-carboxylic acid, ethyl ester, monohydrochloride] | 7000 | 5000 |
| O=c1c2c[nH]c3ccsc3c-2nn1-c1ccc(Cl)cc1 [Example E21, 2-(4-Chlorophenyl)-2,5-dihydro-3H-pyrazolo[3,4-d]thieno [3,2-b]pyridin-3-one] | 0.46 | 0.38 |
| CCOC(=O)c1c(C)nc2ccsc2c1NNc1ccccc1 [Example E10, 5-Methyl-7-(2-phenylhydrazino)-thieno[3,2-b]pyridine-6-carboxylic acid, ethyl ester, monohydrochloride] | 39000 | 23000 |
| O=c1c2c[nH]c3ccsc3c-2nn1-c1cc(Cl)cc(Cl)c1 [Example E22, 2-(3,5-Dichlorophenyl)-2,5-dihy dro-3H-pyrazolo[3,9-d] thieno[3,2-b]pyrirlin-3-one] | 180 | 170 |
| CCOC(=O)c1cnc2ccsc2c1NNc1ccc(OC)cc1 [Example E8, 7-{2-(4-Methoxyphenyl)hydrazino)-thieno[3,2-b]pyridine-6-carboxylic acid, ethyl ester, monbhydrochloride] | 2400 | 3300 |
| Cc1[nH]c2ccsc2c2nn(-c3ccccc3)c(=O)c1-2 [Example E25, 2,5-Dihydro-4-methl-2-phenyl-3H-pyrazolo[3,4-d]thieno [3,2-b]pyridin-3-one] | 99 | 107 |
| Cc1ccc(-n2nc3c4sccc4[nH]cc-3c2=O)cc1 [Example E23, 2,5-Dihydro-2-(4-methylphenyl)-3H-pyrazolo[3,4-d]thieno [3,2-b]pyridin-3-one] | 0.82 | 0.31 |
| CCOC(=O)c1cnc2ccsc2c1NNc1ccc(C)cc1 [Example E5, 7-(2-(4-Methylphenyl)hyarazino)-thieno[3,2-b]pyridine-6-carboxylic acid, ethyl ester, tnonohydrochloride] | 6500 | > 100000 |
| CCOC(=O)c1cnc2ccsc2c1NNc1ccccn1 [Example E6, 7-(2-(2-Pyridyl)hydrazino)-thieno[3,2-b]pyridihe-6-carboxylic acid, ethyl ester, monohydrochloride] | 350 | 360 |
| CCc1cc2c3nn(-c4ccc(Cl)cc4)c(=O)c-3c(C)[nH]c2s1 [Example E29, 2-(4-Chlorophenyl)-2,5-dihydro-7-ethyl-4-methyl-3H-pyrazolo[3,4-d]thieno[2,3-b]pyridin-3-one] | 568 |  |
| COc1ccc(-n2nc3c4sccc4[nH]cc-3c2=O)cc1 [Example E24, 2,5-Dihydro-2-(4-methoxyphenl)-3H-pyrazolo[3,4-d]thieno [3,2-b]pyridin-3-one] | 0.23 |  |
| CCc1cc2c3nn(-c4ccc(Cl)cc4)c(=O)c-3c[nH]c2s1 [Example E28, 2-(4-Chlorophenyl)-2,5-dihydro-7-ethyl-3H-pyrazolo[3,4-d] thieno[2,3-b]pyridin-3-one] | 1.8 |  |
| O=c1c2c[nH]c3ccsc3c-2nn1-c1ccccn1 [Example E30] | 0.7 |  |
